Reference: patent publication US5861387A, “Controlled release systems and low dose androgens” (Endorecherche Inc., priority 1995, dated 1999)

How the values were obtained:
[1] = tested on: antibody 144A; assay: MPA radioimmunoassay, specificity of antibody 144A; assay type: binding, rabbit
Description: Antibody 144A was raised in rabbits against 17-hydroxyprogesterone-3-0-carboxymethyloxime-BSA. The labeled steroid used in the radioimmunoassay (RIA) was methyl-17α-hydroxyprogesterone acetate, 6α-[1,2-^3 H(N)]- obtained from NEN (CAT NO: NET 480) while the reference preparation was medroxyprogesterone acetate (MPA) obtained from Steraloids. The assay buffer used was 0.1% gelatin in 0.1M sodium phosphate, 0.15M sodium chloride, 0.1% sodium azide, pH 7.2. The extraction solvent mixture was ethyl ether-acetone (9:1, v:v) [EEA] while the LH-20 chromatography solvent mixture was iso-octane: toluene: methanol (90:5:5;v:v:v) [IOTH].
One ml of plasma was extracted twice with 5 ml of EEA. The extracts were evaporated to dryness with nitrogen and the remaining residue was dissolved in one ml of IOTH. The extracts were then subjected to LH-20 chromatography on […] columns (Coming CAT NO: 05 722A) filled with 2 g of LH-20 (Pharmacia). The gel was washed with 30 ml of IOTH before addition of one ml of sample and elution with IOTH. The first 6 ml were discarded. The following 10, 16.5 and 27.5 ml of eluent were fraction I (progesterone), II (MPA) and III (17-LH-progesterone), respectively. Fraction II was evaporated to dryness and reconstituted in 1.5 ml of assay buffer.
To each 12 x 75 mm borosilicate test tube was added: 0.2 ml containing 25,000 DPM of tritiated steroid, 0.5 ml of reference preparation ranging from 5 to 5000 pg/tube or 0.5 ml of extracted sample fraction II, 0.2 ml of antiserum 144A diluted 1/5000 or 0.2 ml of assay buffer to account for non specific binding. The tubes were then incubated overnight at 4° C. Then, 0.2 ml 2% charcoal Norit-A, 0.2% Dextran T-70 diluted in water was added. The tubes were then shaken gently and, after 10 min, they were centrifuged at 2000 x g for 10 min. The supernatant was mixed with 8 ml of Formula-989 (NEN: NEF-989) and the radioactivity was counted in a β-counter.

[2] = tested on: breast cancer; conditions: in vivo; cited from earlier work
[3] = tested on: human breast cancer ZR-75-1 cells, androgen receptor; assay: Androgenic (androgen receptor) activity in ZR-75-1 cells: cell growth and GCDFP-15/GCDFP-24 secretion; assay type: cell-based; conditions: for androgenic activity: ZR-75-1 cells, low concentrations
Method: Maintenance of stock cultures The ZR-75-1 human breast cancer cell line can be obtained from the American Type Culture Collection (Rockville, Md.). The cells are routinely cultured in phenol red-free RPMI 1640 medium supplemented with 10 nM E2, 15 mM Hepes, 2 mM L-glutamine, 1 mM sodium pyruvate, 100 IU penicillin per ml, 100 μg streptomycin sulfate per ml, and 10% (v/v) fetal bovine serum (FBS), in a water-saturated atmosphere of 95% air: 5% CO2 at 37° C.
Stock cultures in their logarithmic growth phase are harvested with 0.05% trypsin/0.02% EDTA (w/v) in Hanks' balanced salts solution and resuspended in E2- and phenol red-free RPMI 1640 medium containing 5% (v/v) dextran-coated charcoal (DCC)-treated FBS and 500 ng of bovine insulin per ml, but otherwise supplemented as described above for maintenance of stock cultures. Cells were plated in 24-well Linbro culture plates (Flow Laboratories) at a final density of 0.5-4.0×10^4 cells/well.
Fourty-eight hours after plating, fresh SD medium containing the appropriate concentrations of steroids are added. […] The incubation media are replaced every other day and cells are harvested by trypsinization after 12 days of treatment, unless otherwise indicated. Cell number can be determined with a Coulter Counter.
Calculations and statistical analyses Apparent IC50 values are calculated using an iterative least squares regression (Rodbard, Endocrinology 94:1427-1437,1974), while apparent inhibition constants (Ki values) are calculated according to Cheng and Prusoff (Biochem. Pharmacol. 22: 3099-3108,1973).
In addition to inhibition of cell growth, the secretion of two glycoproteins, namely gross cystic disease fluid protein-15 (GCDFP-15) and GCDFP-24 is markedly stimulated by androgens (Simard et al., Mol. Endocrinol. 3: 694-702, 1989; Simard et al., Endocrinology 126: 3223-3231, 1990).
To assist in determining the activity of the potential compounds on the various steroid receptors, androgen, glucocorticoid, progesterone and estrogen-receptor-mediated activities of synthetic progestins and anabolic steroids can be measured in ZR-75-1 human breast cancer cells using cell growth as well as GCDFP-15 and GCDFP-24 release as parameters of response (Poulin and Labrie, Cancer Res. 46: 4933-4937, 1986; Poulin et al., Breast Cancer Res. Treatm. 12: 213-225, 1988; Poulin et al., Breast Cancer Res. Treatm. 13: 161-172, 1989; Poulin et al., Breast Cancer Res. Treatm. 13: 265-276, 1989; Simard et al., Mol. Endocrinol. 3: 694-702, 1989; Simard et al., Endocrinology 126: 3223-3231, 1990).
In order to analyze the interactions of synthetic progestins or anabolic steroids with the androgen receptor (AR) and glucocorticoid receptor (GR) in their inhibitory action on cell growth, one takes advantage of the additivity of the anti-proliferative effects of androgens and glucocorticoids in this cell line (Poulin et al., Breast Cancer Res. Treatm. 12: 213-225, 1988; Hatton and Labrie, F., unpublished data). […] On the other hand, the effect of a putative androgen can similarly be measured following saturation of GR by dexamethasone (DEX). […] Thus, in the presence of excess androgen (1 μM DMT) in the presence of E2 and insulin, glucocorticoid effects can be assessed with precision and with no interference by the other receptors. The same applies to study of the role of AR when the cells are incubated in the presence of excess glucocorticoid (3 μM DEX), in the presence of E2 and insulin.

[4] = tested on: masculinizing activity; conditions: low blood concentrations; cited from earlier work
[5] = tested on: DMBA-induced mammary carcinoma; conditions: cited from earlier work
[6] = tested on: breast cancer; conditions: cited from earlier work
[7] = tested on: bone; conditions: cited from earlier work
[8] = tested on: breast cancer; conditions: cited from earlier work; remark: listed apart in the source
[9] = E2-treated ovariectomized rats, with or without DHT

Molecule: C[C@]12CC[C@@H](O)C[C@@H]1CC[C@@H]1[C@@H]2CC[C@]2(C)[C@@H](O)CC[C@@H]12 [3α-diol]
- cross-reactivity with antibody 144A [1]: less than 0.1%

Molecule: CC(=O)[C@@]1(O)CC[C@H]2[C@@H]3CC=C4C[C@@H](O)CC[C@]4(C)[C@H]3CC[C@@]21C [17-OH-pregnenolone]
- cross-reactivity with antibody 144A [1]: less than 0.1%

Molecule: C[C@H](O)[C@H]1CC[C@H]2[C@@H]3CCC4=CC(=O)CC[C@]4(C)[C@H]3CC[C@]12C [20α-OH-Prog]
- cross-reactivity with antibody 144A [1]: less than 0.1%

Molecule: CC/C(=C(/CC)c1ccc(O)cc1)c1ccc(O)cc1 [DES]
- objective remissions in breast cancer [2]: effective in producing objective remissions

Molecule: C[C@]12CCC(=O)C[C@@H]1CC[C@@H]1[C@@H]2CC[C@]2(C)[C@@H](O)CC[C@@H]12 [DHT, 5α-dihydrotestosterone]
- concentration exerting maximal inhibitory effect on the AR ([3]; detailed kinetic studies, ZR-75-1): 1 µM
- masculinizing activity [4]: considerable masculinizing activity even at low blood concentrations

Molecule: C[C@]12CC[C@@H]3c4ccc(O)cc4CC[C@H]3[C@@H]1CC[C@@H]2O [E2, 17β-estradiol]
- cross-reactivity with antibody 144A [1]: less than 0.1%
- number of new tumors per rat ([5]; 28-day observation period, E2-treated animals, with or without DHT): 1.5±0.3 per rat
- complete responses (disappearance of palpable tumors) [5, 9]: 11.5%
- progressing tumors [5, 9]: 69.2%

Molecule: CC(C)C(=O)Nc1ccc([N+](=O)[O-])c(C(F)(F)F)c1 [Flutamide]
- effect on DHT action ([5]; simultaneous treatment with DHT): completely prevented DHT action

Molecule: C[C@]12CC[C@H]3[C@@H](CCC4=CC(=O)CC[C@@H]43)[C@@H]1CC[C@@H]2O [Nor-testosterone]
- androgenic activity [3]: possess androgenic activity at low concentrations

Molecule: CC/C(=C(\c1ccccc1)c1ccc(OCCN(C)C)cc1)c1ccccc1 [Tamoxifen]
- median time from onset of therapy to treatment failure ([6]; in vivo): 64 days
- non-responders ([6]; in vivo): 50%
- partial response (PR) ([6]; in vivo): 15%
- survival ([6]; tendency for improved survival): 330 days

Molecule: C[C@]12CCC(=O)C=C1CC[C@@H]1[C@@H]2CC[C@]2(C)C(=O)CC[C@@H]12 [androstenedione]
- cross-reactivity with antibody 144A [1]: less than 0.1%

Molecule: C[C@H]1CC2=CC(=O)CC[C@]2(C)[C@H]2CC[C@@]3(C)[C@@H](CC[C@]3(C)O)[C@H]12 [calusterone, 7β,17α-dimethyltestosterone]
- androgenic activity [3]: possess androgenic activity at low concentrations

Molecule: CC(=O)O[C@]1(C(C)=O)CC[C@H]2[C@@H]3C=C(Cl)C4=CC(=O)CC[C@]4(C)[C@H]3CC[C@@]21C [chlormadinone acetate]
- androgenic activity [3]: possess androgenic activity at low concentrations

Molecule: C[C@]12CCC(=O)C=C1CC[C@@H]1[C@@H]2[C@@H](O)C[C@@]2(C)[C@H]1CC[C@]2(O)C(=O)CO [cortisol]
- cross-reactivity with antibody 144A [1]: less than 0.1%

Molecule: C#C[C@]1(O)CC[C@H]2[C@@H]3CCC4=Cc5oncc5C[C@]4(C)[C@H]3CC[C@@]21C [danazol]
- androgenic activity [3]: possess androgenic activity at low concentrations

Molecule: C[C@@H]1C[C@@]2(C)[C@@H](CC[C@@H]3[C@@H]2CC[C@]2(C)[C@@H](O)CC[C@@H]32)CC1=O [dromostanolone]
- androgenic activity [3]: possess androgenic activity at low concentrations

Molecule: C[C@]12CC[C@@H]3c4ccc(O)cc4CC[C@H]3[C@@H]1CCC2=O [estrone]
- cross-reactivity with antibody 144A [1]: less than 0.1%

Molecule: C#C[C@]1(O)CC[C@H]2[C@@H]3CCC4=CC(=O)CC[C@]4(C)[C@H]3CC[C@@]21C [ethisterone]
- androgenic activity [3]: possess androgenic activity at low concentrations

Molecule: C[C@]12C=CC(=O)C=C1CC[C@@H]1[C@@H]2CC[C@@]2(C)[C@H]1CC[C@]2(C)O [methandrostanolone]
- androgenic activity [3]: possess androgenic activity at low concentrations
- effect on postmenopausal osteoporosis (total body calcium) ([7]; 24-26 months, double-blind): positive and relatively long-term

Molecule: CCCCCCC(=O)O[C@H]1CC[C@H]2[C@@H]3CC[C@H]4CC(=O)C=C(C)[C@]4(C)[C@H]3CC[C@]12C [methonolone enanthate]
- response rate ([8]; 13 of 27 patients): 48%
- median duration of survival, non-responders ([8]; non-responder group): 7.5 months
- median duration of survival, responders ([8]; responders): 27 months

Molecule: C[C@]12COC(=O)C[C@@H]1CC[C@@H]1[C@@H]2CC[C@@]2(C)[C@H]1CC[C@]2(C)O [oxandrolone]
- androgenic activity [3]: possess androgenic activity at low concentrations

Molecule: C[C@]12C/C(=C/O)C(=O)C[C@@H]1CC[C@@H]1[C@@H]2CC[C@@]2(C)[C@H]1CC[C@]2(C)O [oxymetholone]
- androgenic activity [3]: possess androgenic activity at low concentrations

Molecule: CC(=O)[C@H]1CC[C@H]2[C@@H]3CC=C4C[C@@H](O)CC[C@]4(C)[C@H]3CC[C@]12C [pregnenolone]
- cross-reactivity with antibody 144A [1]: less than 0.1%

Molecule: CC(=O)[C@H]1CC[C@H]2[C@@H]3CCC4=CC(=O)CC[C@]4(C)[C@H]3CC[C@]12C [progesterone]
- cross-reactivity with antibody 144A [1]: less than 0.1%

Molecule: C[C@]12Cc3c[nH]nc3C[C@@H]1CC[C@@H]1[C@@H]2CC[C@@]2(C)[C@H]1CC[C@]2(C)O [stanozolol]
- androgenic activity [3]: possess androgenic activity at low concentrations
- bone mass ([7]; in vivo): increase in total bone mass
- side effects ([7]; randomized study in postmenopausal women): side effects were recorded in the majority of patients

Molecule: CCC(=O)O[C@H]1CC[C@H]2[C@@H]3CCC4=CC(=O)CC[C@]4(C)[C@H]3CC[C@]12C [testosterone propionate]
- effect in pre- and post-menopausal women [2]: beneficial effects in both pre- and post-menopausal women
- objective remissions in breast cancer [2]: effective in producing objective remissions
- remission rate and duration, quality of life and survival [2]: improved remission rate and duration, quality of life and survival

Molecule: Vitamin D
- bone resorption, osteoporotic women ([7]; in vivo): only reduced bone resorption
